Assay results: US20190365681A1, “TREATMENT OF CANCER WITH COMBINATIONS OF RXR AGONISTS AND THYROID HORMONES” (Io Therapeutics, Inc., priority 2015, published 2019)
pIC50: −log10 of the molar value. Entries after “also recorded” stand apart in the source; their conditions may differ. Like-named read-outs stand apart in the source and are kept apart here.

Assays:
[1] = cited from earlier work
RXRγ = target: T1, RXRγ (Homo sapiens, UniProt P48443); assay: RXR homodimer transactivation assay (rCRBPII/RXRE-tk-Luc reporter) in CV-1 cells; format: cell-based
T1 construct: an expression construct including a full length RXRα, RXRβ, or RXRγ; expressed in transfected cells; host or cells: CV-1
T1 sequence (P48443 whole entry): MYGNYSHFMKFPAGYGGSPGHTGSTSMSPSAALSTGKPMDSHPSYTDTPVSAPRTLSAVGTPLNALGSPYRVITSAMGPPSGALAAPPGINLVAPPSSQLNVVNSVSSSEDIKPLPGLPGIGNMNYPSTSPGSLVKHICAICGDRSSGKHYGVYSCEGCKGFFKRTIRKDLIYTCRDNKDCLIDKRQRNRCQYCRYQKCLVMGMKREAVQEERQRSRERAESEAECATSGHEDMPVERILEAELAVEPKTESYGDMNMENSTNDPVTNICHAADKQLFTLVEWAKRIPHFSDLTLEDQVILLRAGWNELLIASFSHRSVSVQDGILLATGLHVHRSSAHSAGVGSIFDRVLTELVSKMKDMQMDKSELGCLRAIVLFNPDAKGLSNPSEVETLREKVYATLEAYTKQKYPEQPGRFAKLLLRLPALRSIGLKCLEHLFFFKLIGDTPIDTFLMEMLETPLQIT
Experimental: To determine whether a RXR agonist can mediate its effects via RXRα receptor homodimers, RXRβ receptor homodimers, RXRγ receptor homodimers, or any combination thereof, or the corresponding RAR/RXR heterodimers, receptor-mediated transactivation assays were performed. For transactivation assays assessing RXR homodimer signaling, CV-1 cells were transfected with 1) an expression construct including a full length RXRα, RXRβ, or RXRγ; and 2) a rCRBPII/RXRE-tk-Luc reporter construct that included RXR homodimer-specific RXRE/DR1 responsive element linked to a luciferase gene. For transactivation assays assessing RAR/RXR heterodimer signaling, CV-1 cells were transfected with 1) an expression construct comprising a fusion protein including an estrogen receptor (ER) DNA binding domain linked to the ligand binding domain of RARα, RARβ, or RARγ and 2) a ERE-tk-Luc reporter construct that included an estrogen receptor responsive element linked to a luciferase gene. The ER-RAR fusion proteins provided an accurate readout of only the transfected ER-RAR. […] Data are mean values±SE from five independent experiments.

LXRβ/RXR = assay: Permissive heterodimer transactivation assay, CV-1 cells, 3x(PLTP/LXRE)-tk-Luc; format: cell-based; details: 20 hr; relative to T0901317
Excerpt: (§1) For PPARγ: CV-1 cells were transfected with 3×(rAOX/DR1)-tk-Luc reporter gene and an expression vector for PPARγ. For FXR:CV-1 cells were transfected with 3×(IBABP/IRI)-tk-Luc reporter gene and vectors for FXR and RXRα. For LXR:CV-1 cells were transfected with 3×(PLTP/LXRE)-tk-Luc reporter gene with vectors for LXRα or LXRβ. For Nurr1: COS7 cells were transfected with 3×NBRE-tk-luc reporter gene and full length Nurr-1 with or without full-length RXRα plasmid. […] Luciferase data were normalized to co-transfected β-gal activity. Luciferase activity was expressed as percent of maximal activity obtained using specific agonists. Rosiglitazone (PPARγ), GW4064 (FXR), T0901317 (LXR).

LXRα/RXR = assay: as above; format: cell-based; details: 20 hr; relative to T0901317
Excerpt: as §1

H446 = assay: In vitro growth inhibition, soft-agar; format: cell-based
Experimental: (§2) The inhibition of growth was tested in a variety of cancer cell lines.
(§3) All cell lines were obtained from American Type Culture Collection (ATCC, Manassas, Va.) and culture media and supplements were supplied by ATCC and Invitrogen (Carlsbad, Calif.). The ATP assay was performed using […]-GLO Luminescent Cell Viability Assay Kit from Promega (Madison, Wis.) which allows ATP to be roughly quantified based on the […] emitted by the cells. Luminescence was recorded using VICTOR-22 1420 (Perkin Elmer, Waltham, Mass.).
(§4) The soft-agar coupled thymidine incorporation assay is used to determine the ability of cells to form colonies through invasion into agar matrix. A bottom feeder layer of cells was composed of 0.6% NUSIEVE GTG agarose (Cambrex, East Rutherford, N.J.), D-MEM with low glucose, 2 mM L-glutamine, and 15% charcoal/dextran-treated FBS. Test cells were seeded in the top soft-agar layer containing 0.3% NUSIEVE GTG agarose, D-MEM (low glucose), 2 mM L-glutamine, and 15% charcoal/dextran-treated FBS at a density of 10,000-20,000 cells per well. Test cells were labeled with [^3H] thymidine at 50 nM. Labeled cells were collected and counted as described above.
(§5) For the soft-agar colony formation assay, cells were cultured in 6-well plates containing two agar layers with growth medium. The bottom feeder layer contained 0.5% DIFCO Noble Agar (Becton Dickinson & Co., East Rutherford, N.J.), D-MEM with low glucose and 2 mM L-glutamine, and 15% charcoal/dextran-treated FBS. Test cells were seeded in the top soft-agar layer containing 0.3% agarose, D-MEM (low glucose), 2 mM L-glutamine, and 15% charcoal/dextran-treated FBS at a density of 10,000 cells per well. After treatment with drugs, cell colonies were counted under a light microscope.
(§6) Efficacy is the maximal inhibition of cell growth at the maximal concentration used in the studies. ND means the results were not determined.

T47D [2] = assay: In vitro growth inhibition, soft-agar; format: cell-based
Experimental: as §2, §3, §4, §5, §6

RXRα = RXRα (Homo sapiens, UniProt P19793); details: CV-1 cells, 20 hours, luciferase
Sequence of RXRα (P19793 whole entry, the tested form may be a part): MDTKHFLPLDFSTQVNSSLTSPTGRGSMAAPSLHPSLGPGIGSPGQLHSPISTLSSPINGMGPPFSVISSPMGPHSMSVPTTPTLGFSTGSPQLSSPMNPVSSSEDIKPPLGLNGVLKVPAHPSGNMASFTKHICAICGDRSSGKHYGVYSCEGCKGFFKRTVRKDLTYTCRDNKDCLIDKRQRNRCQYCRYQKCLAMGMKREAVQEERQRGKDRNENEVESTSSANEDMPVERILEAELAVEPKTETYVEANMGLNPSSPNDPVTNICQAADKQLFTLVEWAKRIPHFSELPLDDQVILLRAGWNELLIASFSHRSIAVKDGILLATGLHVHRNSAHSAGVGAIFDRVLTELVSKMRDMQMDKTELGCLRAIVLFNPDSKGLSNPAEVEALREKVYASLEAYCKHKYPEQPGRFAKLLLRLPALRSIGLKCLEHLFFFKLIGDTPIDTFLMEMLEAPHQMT
Experimental: To determine whether a RXR agonist can mediate its effects via RXRα receptor homodimers, RXRβ receptor homodimers, RXRγ receptor homodimers, or any combination thereof, or the corresponding RAR/RXR heterodimers, receptor-mediated transactivation assays were performed. For transactivation assays assessing RXR homodimer signaling, CV-1 cells were transfected with 1) an expression construct including a full length RXRα, RXRβ, or RXRγ; and 2) a rCRBPII/RXRE-tk-Luc reporter construct that included RXR homodimer-specific RXRE/DR1 responsive element linked to a luciferase gene. For transactivation assays assessing RAR/RXR heterodimer signaling, CV-1 cells were transfected with 1) an expression construct comprising a fusion protein including an estrogen receptor (ER) DNA binding domain linked to the ligand binding domain of RARα, RARβ, or RARγ and 2) a ERE-tk-Luc reporter construct that included an estrogen receptor responsive element linked to a luciferase gene. […] Data are mean values±SE from five independent experiments.

A-427 = assay: In vitro growth inhibition, ATP assay ([…]-GLO); format: cell-based
Experimental: as §2, §3, §6

HuT 78 = assay: In vitro growth inhibition, ATP assay ([…]-GLO); format: cell-based
Experimental: as §2, §3, §6

T47D [3] = assay: In vitro growth inhibition, ATP assay ([…]-GLO); format: cell-based
Experimental: as §2, §3, §6

SK-BR-3 = assay: In vitro growth inhibition, ATP assay ([…]-GLO); format: cell-based
Experimental: as §2, §3, §6

U937 = assay: In vitro growth inhibition, ATP assay ([…]-GLO); format: cell-based
Experimental: as §2, §3, §6

MCF-7 = assay: In vitro growth inhibition, ATP assay ([…]-GLO); format: cell-based
Experimental: as §2, §3, §6

SiHa = assay: In vitro growth inhibition, ATP assay ([…]-GLO); format: cell-based
Experimental: as §2, §3, §6

HT-3 = assay: In vitro growth inhibition, ATP assay ([…]-GLO); format: cell-based
Experimental: as §2, §3, §6

ME-180 = assay: In vitro growth inhibition, ATP assay ([…]-GLO); format: cell-based
Experimental: as §2, §3, §6

SW403 = assay: In vitro growth inhibition, ATP assay ([…]-GLO); format: cell-based
Experimental: as §2, §3, §6

Nurr1/RXR = Nurr1/RXR (Homo sapiens, UniProt P19793); assay: Permissive heterodimer transactivation assay, COS7 cells, 3xNBRE-tk-luc; format: cell-based; details: Nurr-1 with RXRα
Sequence of Nurr1/RXR (P43354 whole entry partner): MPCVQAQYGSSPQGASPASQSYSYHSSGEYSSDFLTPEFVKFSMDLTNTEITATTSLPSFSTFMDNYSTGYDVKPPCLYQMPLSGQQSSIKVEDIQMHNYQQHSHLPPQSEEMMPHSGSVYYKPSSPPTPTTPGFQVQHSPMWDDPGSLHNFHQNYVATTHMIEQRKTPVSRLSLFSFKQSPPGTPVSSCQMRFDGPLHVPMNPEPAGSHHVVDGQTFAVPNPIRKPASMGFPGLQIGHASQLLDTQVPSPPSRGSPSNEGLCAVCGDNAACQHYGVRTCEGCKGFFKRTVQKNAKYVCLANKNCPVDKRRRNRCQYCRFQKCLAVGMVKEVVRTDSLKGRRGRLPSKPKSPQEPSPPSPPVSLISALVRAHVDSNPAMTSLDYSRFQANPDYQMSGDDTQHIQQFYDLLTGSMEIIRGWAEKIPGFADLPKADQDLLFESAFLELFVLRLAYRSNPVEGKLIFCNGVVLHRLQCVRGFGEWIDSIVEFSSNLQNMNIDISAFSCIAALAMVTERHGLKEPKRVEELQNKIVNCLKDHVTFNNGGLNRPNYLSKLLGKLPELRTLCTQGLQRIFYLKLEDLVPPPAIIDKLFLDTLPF
Sequence of Nurr1/RXR (P19793 whole entry): as the sequence (P19793 whole entry, the tested form may be a part) above
Excerpt: as §1

FXR/RXR = target: T2, FXR/RXR (Homo sapiens, UniProt P19793); assay: Permissive heterodimer transactivation assay, CV-1 cells, 3x(IBABP/IRI)-tk-Luc; format: cell-based; details: 20 hr; relative to GW4064
T2 construct: expressed in transfected cells; host or cells: CV-1
T2 sequence (Q96RI1 whole entry partner): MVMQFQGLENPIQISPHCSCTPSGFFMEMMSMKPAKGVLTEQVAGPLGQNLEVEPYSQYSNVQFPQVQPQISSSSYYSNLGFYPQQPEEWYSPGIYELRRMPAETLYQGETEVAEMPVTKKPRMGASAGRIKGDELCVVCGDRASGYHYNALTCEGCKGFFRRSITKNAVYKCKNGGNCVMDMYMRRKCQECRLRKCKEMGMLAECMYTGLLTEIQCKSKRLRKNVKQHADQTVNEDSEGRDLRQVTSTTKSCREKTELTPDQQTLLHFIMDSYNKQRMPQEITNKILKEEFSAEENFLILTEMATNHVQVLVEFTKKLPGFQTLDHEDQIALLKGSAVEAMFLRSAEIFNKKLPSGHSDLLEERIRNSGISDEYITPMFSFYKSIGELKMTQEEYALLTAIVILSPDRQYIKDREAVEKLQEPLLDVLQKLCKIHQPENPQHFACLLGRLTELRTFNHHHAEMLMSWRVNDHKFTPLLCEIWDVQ
T2 sequence (P19793 whole entry): as the sequence (P19793 whole entry, the tested form may be a part) above
Excerpt: as §1

[4] = tested on: refractory malignancies (progressive, solid tumors); assay: Phase I/II study of IRX4204 in refractory malignancies; format: in vivo, Humans
Excerpt: Data was collected for 18 patients with progressive, solid tumors.

H-82 = assay: In vitro growth inhibition, [3H] thymidine incorporation; format: cell-based
Experimental: as §2, §3
(§7) The thymidine incorporation assay allows for specific detection of [^3H]-labeled thymidine (Perkin-Elmer) incorporated into newly synthesized DNA. Labeled cells were collected and their DNA was harvested on to a fiberglass filter using MLR24 Cell Harvester (Brandel, Geithersburg, Md.). The amount of incorporated [^3H] thymidine was determined by scintillation counting using Trilux-1450 Microbeta Counter (Perkin-Elmer).
as §6

HL-60 = assay: as above; format: cell-based
Experimental: as §2, §3, §7, §6

SW48 = assay: In vitro growth inhibition, cell counting; format: cell-based; details: SW48, Colon, maximal inhibition at 1 μM
[5] = Homo sapiens, Breast ER-positive

C=C(c1ccc(C(=O)O)cc1)c1cc2c(cc1C)C(C)(C)CCC2(C)C [bexarotene, 4-[1-(3,5,5,8,8-pentamethyl-6,7-dihydronaphthalen-2-yl)ethenyl]benzoic acid]
Cmax ([1]; dose of 400 mg/m^2/d, read-out: Cmax in the blood (estimated)): ~8 µM
Cmax ([1]; lower dose 225 mg/m^2/d, read-out: Cmax (estimated)): ~2 µM

CC(/C=C/[C@@H]1C[C@]1(C)c1ccc2c(c1)C(C)(C)CCC2(C)C)=C\C(=O)O [IRX4204, 3,7-dimethyl-6(S),7(S)-methano,7-[1,1,4,4-tetramethyl-1,2,3,4-tetrahydronaphth-7-yl]2(E),4(E) heptadienoic acid]
Efficacy (% of 1 μM IRX4204) RXRγ (RXRγ): 0.09 ± 0.01 100 % of 1 μM IRX4204
activation of LXRβ/RXR heterodimer (LXRβ/RXR): not to transactivate; also recorded: does not activate
activation of LXRα/RXR heterodimer (LXRα/RXR): not to transactivate; also recorded: does not activate
Efficacy (Conc.) (H446; H446, Soft-Agar, maximal inhibition at 1 μM): 44%
pIC50 (H446; Homo sapiens, NCI-H446, H446, Small Cell Lung Cancer, Soft-Agar): 7.77
pIC50 (T47D [2]; [5]): 7.90
Efficacy (Conc.) (T47D [2]; maximal inhibition at 10 μM): 97%
Efficacy (% of 1 μM IRX4204) RXRα (RXRα): 100 % of 1 μM IRX4204
Efficacy (Conc.) (A-427; A-427, ATP, maximal inhibition at 10 μM): 50%
pIC50 (A-427; Homo sapiens, A-427, Non-Small Cell Lung Cancer, ATP): 8.11
pIC50 (HuT 78; Homo sapiens, HuT78, HuT 78, Cutaneous T-Cell Lymphoma, ATP, 50% of maximal inhibition): 8.80
Efficacy (Conc.) (HuT 78; HuT 78, ATP, maximal inhibition at 1 μM): 81%
pIC50 (T47D [3]; [5]): 7.12
Efficacy (Conc.) (T47D [3]; maximal inhibition at 1 μM): 97%
pIC50 (SK-BR-3; Homo sapiens, SK-BR-3, Breast ER-negative, ATP): 8.52
Efficacy (Conc.) (SK-BR-3; SK-BR-3, ATP, maximal inhibition at 1 μM): 74%
pIC50 (U937; Homo sapiens, U-937, U937, Leukemia, ATP): 9.14
Efficacy (Conc.) (U937; U937, ATP, maximal inhibition at 1 μM): 94%
pIC50 (MCF-7; Homo sapiens, MCF7, MCF-7, Breast ER-positive, ATP): 7.28
Efficacy (Conc.) (MCF-7; MCF-7, ATP, maximal inhibition at 1 μM): 52%
pIC50 (SiHa; Homo sapiens, Cervical): 7.33
Efficacy (Conc.) (SiHa; maximal inhibition at 1 μM): 41%
Efficacy (Conc.) (HT-3; HT-3, ATP, maximal inhibition at 1 μM): 68%
pIC50 (HT-3; Homo sapiens, HT-3, Cervical, ATP): > 6.00
pIC50 (ME-180; Homo sapiens, ME-180, Cervical, ATP): 8.15
Efficacy (Conc.) (ME-180; ME-180, ATP, maximal inhibition at 1 μM): 80%
pIC50 (SW403; Homo sapiens, SW-403, SW403, Colon, ATP): 9.11
Efficacy (Conc.) (SW403; SW403, ATP, maximal inhibition at 1 μM): 35%
activation of Nurr1/RXR permissive heterodimer (Nurr1/RXR): selectively activates
activation of FXR/RXR heterodimer (FXR/RXR): not to transactivate; also recorded: does not activate
patients who did not exhibit tumor progression for at least four months ([4]; 18 patients with progressive, solid tumors, 9 patients): 50%
adverse events recorded ([4]; patients, once-daily oral 3, 6, 12, 24 mg/m^2, minimum four weeks): triglyceride elevation and hypothyroidism
serious adverse events related to IRX4204 ([4]; patients, once-daily oral 3, 6, 12, 24 mg/m^2, minimum four weeks, 18 patients): no serious adverse events considered possibly or probably related to IRX4204
Efficacy (Conc.) (H-82; H-82, thymidine incorporation, maximal inhibition at 1 μM): 72%
pIC50 (H-82; Homo sapiens, NCI-H82, H-82, Small Cell Lung Cancer, [H3] Thymidine Incorporation): 8.44
Efficacy (Conc.) (HL-60; HL-60, thymidine incorporation, maximal inhibition at 1 μM): 94%
pIC50 (HL-60; Homo sapiens, HL-60, Leukemia, [H3] Thymidine Incorporation): 7.82
Efficacy (Conc.) (SW48): 60%
